Test results published in patent publication US11066711B2, “Biomarkers for predicting Clostridium difficile infection treatment outcome” (Mayo Foundation for Medical Education and Research, priority 2015, dated 2021).

System: Clostridium difficile infection
Experiment: Primary CDI treatment outcome in patients with a first CDI episode (clinical cohort)
Assay type: in vivo, human
Settings: 88 patients with first CDI episode; metronidazole versus vancomycin (Table 1)
Source text: Patients with a first Clostridium difficile infection (CDI) episode were recruited. Consecutive patient stool samples that led to CDI diagnosis were collected.
Clinical data including demographics, hospitalization, concomitant medications, severity, laboratory parameters, prior and concomitant antibiotic use, initial CDI treatment, treatment response and recurrent CDI were obtained by a review of the electronic medical record.
Treatment failure was defined as non-response to treatment after 5 days of metronidazole treatment or 4 days of vancomycin therapy (Khanna et al., 2012 Am J Gastroenterol 107:89-95; Cohen et al., 2010 Infect Control Hosp Epidemiol 31:431-55; and Surawicz et al., 2013 Am J Gastroenterol 108:478-98). Recurrent CDI was defined as recurrence of diarrhea after complete resolution of symptoms at any time during the treatment or within 56 days of onset with a positive CDI test (Cohen et al., 2010 Infect Control Hosp Epidemiol 31:431-55).
Stool samples were collected from 88 patients (median age 52.7 years, interquartile range 36.9-65.1; 60.2% female) and clinical outcomes were recorded prospectively. The rate of primary non-response following recommended treatment was 12.5%, and was similar between metronidazole and vancomycin (Table 1).

SMILES	rate of primary non-response, comparison between drugs
Cc1ncc([N+](=O)[O-])n1CCO [metronidazole]	similar
CN[C@H](CC(C)C)C(=O)N[C@H]1C(=O)N[C@@H](CC(N)=O)C(=O)N[C@H]2C(=O)N[C@H]3C(=O)N[C@H](C(=O)N[C@H](C(=O)O)c4cc(O)cc(O)c4-c4cc3ccc4O)[C@H](O)c3ccc(c(Cl)c3)Oc3cc2cc(c3O[C@@H]2O[C@H](CO)[C@@H](O)[C@H](O)[C@H]2O[C@H]2C[C@](C)(N)[C@H](O)[C@H](C)O2)Oc2ccc(cc2Cl)[C@H]1O [vancomycin]	similar
